Reference: ChEMBL document CHEMBL2380210, “Discovery of natural estrogen receptor modulators with structure-based virtual screening” (Bioorg Med Chem Lett, 2013)
Active and inactive are the calls of the source. The calls are words filed in the database; no cut-off is given here.

What was measured:
[1] = biological target: T1, Estrogen receptor (Homo sapiens) (UniProt P03372); experiment: Antagonist activity at human estrogen receptor-alpha at 25 uM by yeast two-hybrid assay in presence of SRC1
T1 sequence (whole entry): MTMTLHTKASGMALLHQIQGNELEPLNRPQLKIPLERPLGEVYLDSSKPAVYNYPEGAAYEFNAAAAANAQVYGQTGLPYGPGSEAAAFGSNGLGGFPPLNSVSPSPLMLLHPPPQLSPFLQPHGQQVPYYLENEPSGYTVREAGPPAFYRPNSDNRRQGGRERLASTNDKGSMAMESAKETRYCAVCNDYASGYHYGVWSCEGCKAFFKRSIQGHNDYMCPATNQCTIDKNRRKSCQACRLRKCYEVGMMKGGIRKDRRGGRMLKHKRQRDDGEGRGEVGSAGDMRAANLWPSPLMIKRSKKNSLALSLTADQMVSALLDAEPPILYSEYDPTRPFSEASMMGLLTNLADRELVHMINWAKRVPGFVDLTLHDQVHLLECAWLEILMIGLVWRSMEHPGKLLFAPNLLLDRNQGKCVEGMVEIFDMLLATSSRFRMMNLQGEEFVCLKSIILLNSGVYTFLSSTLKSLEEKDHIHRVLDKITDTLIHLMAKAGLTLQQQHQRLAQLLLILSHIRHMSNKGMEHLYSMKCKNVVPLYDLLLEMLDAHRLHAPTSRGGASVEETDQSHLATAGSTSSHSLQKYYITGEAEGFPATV

Estrogen receptor beta [2] = biological target: T2, Estrogen receptor beta (Homo sapiens, UniProt Q92731)
T2 sequence (Q92731 whole entry): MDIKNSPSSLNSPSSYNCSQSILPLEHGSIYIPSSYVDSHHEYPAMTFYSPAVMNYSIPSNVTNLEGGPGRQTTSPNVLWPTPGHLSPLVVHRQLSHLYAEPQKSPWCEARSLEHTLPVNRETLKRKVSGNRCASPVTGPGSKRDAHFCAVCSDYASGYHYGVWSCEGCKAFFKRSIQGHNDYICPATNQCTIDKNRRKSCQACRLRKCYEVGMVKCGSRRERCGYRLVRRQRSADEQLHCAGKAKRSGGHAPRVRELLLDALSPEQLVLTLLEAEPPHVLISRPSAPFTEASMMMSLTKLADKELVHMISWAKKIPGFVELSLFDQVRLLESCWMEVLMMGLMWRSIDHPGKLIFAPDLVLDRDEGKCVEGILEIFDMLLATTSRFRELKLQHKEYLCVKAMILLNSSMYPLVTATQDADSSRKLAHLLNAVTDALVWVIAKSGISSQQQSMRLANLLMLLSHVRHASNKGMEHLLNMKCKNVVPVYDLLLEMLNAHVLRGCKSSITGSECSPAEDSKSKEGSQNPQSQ
Description: Antagonist activity at human estrogen receptor-beta by yeast two-hybrid assay in presence of SRC1

Estrogen receptor [3] = biological target: T3, Estrogen receptor (Homo sapiens, UniProt P03372); experiment: Agonist activity at human estrogen receptor-alpha by yeast two-hybrid assay in presence of SRC1
T3 sequence (P03372 whole entry): T1 sequence (whole entry)

Estrogen receptor beta [4] = biological target: T2, Estrogen receptor beta; remark: listed apart in the source
Description: Agonist activity at human estrogen receptor-beta by yeast two-hybrid assay in presence of SRC1

Estrogen receptor [5] = biological target: T3, Estrogen receptor; experiment: Antagonist activity at human estrogen receptor-alpha by yeast two-hybrid assay in presence of SRC1
Homo sapiens = organism: Homo sapiens; experiment: Selectivity ratio of EC50 for human estrogen receptor-alpha to EC50 for human estrogen receptor-beta

SMILES	EC50 (Estrogen receptor beta [2]) [µM]	EC50 (Estrogen receptor [5]) [µM]	also measured
C=C(C)[C@@H]1[C@H](O)C[C@@H]2C(=CC[C@]3(C)[C@@H]([C@H](C)CC/C=C(\C)C(=O)O)CC[C@@]23C)[C@@]1(C)CCC(=O)O	25.3	–	Activity [1]: inactive
C=C(C)[C@@H]1[C@H](O)C[C@@H]2[C@]3(CC[C@]4(C)[C@@H]([C@H](C)CC/C=C(\C)C(=O)O)CC[C@@]24C)C[C@]13CCC(=O)O	33.8	–	Activity [1]: inactive
O=C(Cc1ccc(O)cc1)c1ccc(O)cc1O	–	–	EC50 (Estrogen receptor [3]): 2.03 µM; EC50 (Estrogen receptor beta [4]): 0.5 µM
O=C(O)/C=C/c1ccc(O)cc1 [COUMARIC ACID]	–	–	EC50 (Estrogen receptor [3]): 16.1 µM; EC50 (Estrogen receptor beta [4]): 4.89 µM
C/C(=C/C(=O)C[C@@H](C)[C@]1(C)CC[C@@]2(C)C3=CCC4C(C)(C)[C@H](O)CC[C@]4(C)[C@@H]3CC=C21)C(=O)O (stereo partly drawn)	17.7	12.6	–
C=C(C)[C@@H]1[C@@H]2O[C@@H]2[C@@H]2[C@]3(CC[C@]4(C)[C@@H]([C@H](C)CC/C=C(\C)C(=O)O)CC[C@@]24C)C[C@]13CCC(=O)O	4.68	2.55	–
CCOC(=O)c1ccc(O)cc1 [ETHYLPARABEN]	–	–	Ratio EC50 (Homo sapiens): 20; EC50 (Estrogen receptor [3]): 38.2 µM; EC50 (Estrogen receptor beta [4]): 1.86 µM
C=C(C)[C@@H]1[C@H](O)C[C@@H]2C(=CC[C@]3(C)[C@@H]([C@H](C)CC/C=C(\C)C(=O)OC)CC[C@@]23C)[C@@]1(C)CCC(=O)O	72.4	–	Activity [1]: inactive

The next lines start with results.

EC50 (Estrogen receptor beta [2]) [µM]	EC50 (Estrogen receptor [5]) [µM]	SMILES	also measured
2.76	8.32	C/C(=C/C(=O)C[C@@H](C)[C@]1(C)CC[C@@]2(C)C3=CCC4C(C)(C)C(=O)CC[C@]4(C)[C@@H]3CCC21)C(=O)O (stereo partly drawn)	–
49.2	48.4	C=CCc1ccc(OC)c(-c2cc(C=O)cc(O)c2O)c1	–
4.28	8.17	CC(C)(O)c1ccc2c(c1)C(=O)C[C@H]1[C@@](C)(C(=O)O)CCC[C@]21C	–
